Experimental data taken from patent US11773078B2, “Furin inhibitors” (Glaxosmithkline Intellectual Property Development Limited, priority 2018, dated 2023).

Experiments:
[1] = biological target: T1, furin (endogenous protease) in U20S cells (Homo sapiens, UniProt P09958); experiment: Furin cell-based assay (image-based, Golgi-targeted GFP with BMP10 furin/PCSK cleavage site); conditions: 24-hour incubation, read-out: furin golgi cell pXC50 (converted);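 also: Read-out is mean GFP fluorescence of Golgi puncta per cell by high-content imaging, retained when furin inhibited, over an eleven-point 0.00017–10 µM series, four-parameter fit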
T1 construct: the endogenous protease cleaves GFP; endogenous in cells; host or cells: U2OS cells transduced with a BacMam reporter

[2] = biological target: T2, Furin (108-574-Tev-Flag-His) enzyme (Homo sapiens, UniProt P09958); experiment: Furin enzyme assay; format: biochemical
T2 construct: Furin (108-574-Tev-Flag-His) enzyme was expressed and purified from CHO cells; TEV cleavage site (C); FLAG (C); His (C); made in house; host or cells: CHO cells
In short: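 CHO-expressed, purified furin construct at 40 pM in 100 mM HEPES pH7.5, 1 mM CaCl2, 0.005% Triton X-100. Eleven-point 1:3 series, 0.00017–10 μM final, incubated 2 h at room temperature and read on Envision. pXC50 from four-parameter fit.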

T2 sequence (P09958 108-574): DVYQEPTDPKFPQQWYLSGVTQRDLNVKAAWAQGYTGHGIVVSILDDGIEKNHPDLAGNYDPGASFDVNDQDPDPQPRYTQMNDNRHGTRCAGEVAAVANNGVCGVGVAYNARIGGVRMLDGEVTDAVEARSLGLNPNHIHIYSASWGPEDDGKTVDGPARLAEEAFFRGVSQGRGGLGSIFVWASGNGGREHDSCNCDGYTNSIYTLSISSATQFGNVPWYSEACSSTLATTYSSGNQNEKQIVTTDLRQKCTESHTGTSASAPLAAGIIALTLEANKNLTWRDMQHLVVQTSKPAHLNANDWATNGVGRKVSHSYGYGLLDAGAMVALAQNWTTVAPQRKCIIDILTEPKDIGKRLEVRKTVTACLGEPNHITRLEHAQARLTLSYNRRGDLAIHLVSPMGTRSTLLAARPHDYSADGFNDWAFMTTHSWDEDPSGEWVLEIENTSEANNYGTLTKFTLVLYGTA
T1 sequence (P09958 108-794): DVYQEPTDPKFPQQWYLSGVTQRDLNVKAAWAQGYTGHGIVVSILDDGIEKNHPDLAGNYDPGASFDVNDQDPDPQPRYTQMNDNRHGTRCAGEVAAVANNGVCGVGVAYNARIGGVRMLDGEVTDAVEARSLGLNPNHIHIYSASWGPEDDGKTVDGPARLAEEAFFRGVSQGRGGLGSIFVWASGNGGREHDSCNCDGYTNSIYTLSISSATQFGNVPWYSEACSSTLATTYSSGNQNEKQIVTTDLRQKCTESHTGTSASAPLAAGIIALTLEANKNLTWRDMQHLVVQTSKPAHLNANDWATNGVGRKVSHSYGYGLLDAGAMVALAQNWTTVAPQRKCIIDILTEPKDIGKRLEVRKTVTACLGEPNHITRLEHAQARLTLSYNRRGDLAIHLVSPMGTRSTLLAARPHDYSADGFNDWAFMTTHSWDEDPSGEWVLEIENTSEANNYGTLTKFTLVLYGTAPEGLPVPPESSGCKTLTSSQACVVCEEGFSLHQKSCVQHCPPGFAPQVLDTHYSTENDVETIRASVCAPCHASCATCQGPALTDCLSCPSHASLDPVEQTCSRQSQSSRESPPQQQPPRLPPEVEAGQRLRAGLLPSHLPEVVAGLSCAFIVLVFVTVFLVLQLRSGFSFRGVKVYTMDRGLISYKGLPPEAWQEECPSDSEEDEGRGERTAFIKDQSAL

| EC50 [1] [µM] | furin enzyme pIC50 [2] | IC50 ([2]; read-out: furin enzyme pIC50 (converted)) [µM] | SMILES |
| --- | --- | --- | --- |
| 0.002 | 8.9 | – | CC(=O)NCC1CCN(Cc2cc(Oc3ccc(N4CCN(C)CC(F)C4)nc3)nc(-c3cc(Cl)cc(Cl)c3)c2)CC1 (centres unmarked) [Example 145, N-((1-((2-(3,5-dichlorophenyl)-6-((6-(6-fluoro-4-methyl-1,4-diazepan-1-yl)pyridin-3-yl)oxy)pyridin-4-yl)methyl)piperidin-4-yl)methyl)acetamide] |
| 0.0158 | 8.5 | – | CN1CCN(c2ncc(Oc3cc(CN4CCC(CC(=O)O)CC4)cc(-c4cc(Cl)cc(Cl)c4)n3)cn2)CC(C)(O)C1 (centres unmarked) [Example 146, 2-(1-((2-(3,5-dichlorophenyl)-6-((2-(6-hydroxy-4,6-dimethyl-1,4-diazepan-1-yl)pyrimidin-5-yl)oxy)pyridin-4-yl)methyl)piperidin-4-yl)acetic acid] |
| 0.0316 | – | 0.000631 | CN1CCN(c2ncc(Oc3cc(CN4CCC(CC(=O)O)CC4)cc(-c4cc(Cl)cc(Cl)c4)n3)cn2)CC(F)C1 (centres unmarked) [Example 147, 2-(1-((2-(3,5-dichlorophenyl)-6-((2-(6-fluoro-4-methyl-1,4-diazepan-1-yl)pyrimidin-5-yl)oxy)pyridin-4-yl)methyl)piperidin-4-yl)acetic acid] |
| 0.0631 | 8.3 | – | Cc1nc(N2CCN(C)CC2)ncc1Oc1cc(CN2CCC(CC(=O)O)CC2)cc(-c2cc(Cl)cc(Cl)c2)n1 [Example 148, 2-(1-((2-(3,5-dichlorophenyl)-6-((4-methyl-2-(4-methylpiperazin-1-yl)pyrimidin-5-yl)oxy)pyridin-4-yl)methyl)piperidin-4-yl)acetic acid] |
| 0.0794 | 8.3 | – | Cc1nc(N2CCN(C)CC2)ccc1Oc1cc(CN2CCC(CC(=O)O)CC2)cc(-c2cc(Cl)cc(Cl)c2)n1 [Example 149, 2-(1-((2-(3,5-dichlorophenyl)-6-((2-methyl-6-(4-methylpiperazin-1-yl)pyridin-3-yl)oxy)pyridin-4-yl)methyl)piperidin-4-yl)acetic acid] |
| 0.0631 | 8.2 | – | CN1CCN(c2ccc(Oc3cc(CN4CCC(CC(=O)O)CC4)cc(-c4cc(Cl)cc(Cl)c4)n3)cc2)CC1 [Example 150, 2-(1-((2-(3,5-dichlorophenyl)-6-(4-(4-methylpiperazin-1-yl)phenoxy)pyridin-4-yl)methyl)piperidin-4-yl)acetic acid] |
| 0.1 | 8.2 | – | CN1CCN(c2ncc(Oc3cc(CN4CCC(CC(=O)O)CC4)cc(-c4cc(Cl)cc(Cl)c4)n3)cc2F)CC1 [Example 151, 2-(1-((2-(3,5-dichlorophenyl)-6-((5-fluoro-6-(4-methylpiperazin-1-yl)pyridin-3-yl)oxy)pyridin-4-yl)methyl)piperidin-4-yl)acetic acid] |
| 0.0158 | 7.9 | – | CN1CCN(c2ncc(Oc3cc(CN4CCO[C@H](CCO)CC4)cc(-c4cc(Cl)cc(Cl)c4)n3)cn2)CC1 [Example 153, (S)-2-(4-((2-(3,5-dichlorophenyl)-6-((2-(4-methylpiperazin-1-yl)pyrimidin-5-yl)oxy)pyridin-4-yl)methyl)-1,4-oxazepan-7-yl)ethanol] |
| 0.0501 | 7.8 | – | CC(=O)N[C@@H]1[C@@H]2CN(Cc3cc(Oc4cnc(N5CCCN(C)CC5)nc4)nc(-c4cc(Cl)cc(Cl)c4)c3)C[C@@H]21 [Example 154, N-((1R,5S,6r)-3-((2-(3,5-dichlorophenyl)-6-((2-(4-methyl-1,4-diazepan-1-yl)pyrimidin-5-yl)oxy)pyridin-4-yl)methyl)-3-azabicyclo[3.1.0]hexan-6-yl)acetamide] |
| 0.0158 | 8.1 | – | CC(=O)CC1CCN(Cc2cc(Oc3cnc(N4CCN(C)CC4)nc3)nc(-c3cc(Cl)cc(Cl)c3)c2)CC1 [Example 155, 1-(1-((2-(3,5-dichlorophenyl)-6-((2-(4-methylpiperazin-1-yl)pyrimidin-5-yl)oxy)pyridin-4-yl)methyl)piperidin-4-yl)propan-2-one] |
